In the experiment the test system is YAP/TAZ-TEAD transcription. As to the kind of experiment: Reporter gene assay for measuring the inhibition of YAP/TAZ-TEAD transcription (TEAD-responsive element luciferase reporter in Hek293T cells). In kind it is cell-based. Conditions: Homo sapiens, HEK-293T, 24 h, Hek293T cells transiently transfected with TEAD-responsive element luciferase reporter; 24 hours incubation. The protocol:
Hek293T cells are cultured in DMEM supplemented with 10% fetal bovine serum, Sodium pyruvate, Sodium bicarbonate, L-glutamine. The cells are harvested and transiently transfected with TEAD-responsive element luciferase reporter. Transfected cells are plated in 384-wells plate containing pre-diluted compounds. After 24 hours incubation at 37° C./5% CO2, assay plates were cooled down to RT and levelled to an equal volume per well, prior to the addition of 25 uL luciferase substrate SteadyLite (Perkin Elmer)/well. The plate was shaken for 10 min at 600 rpm, centrifuged for 1 min at 500 rpm and measured with an Envision reader (PerkinElmer). The amount of relative light units produced by the TEAD reporter is used to calculated percent of inhibition. The percent of reporter inhibition was calculated in the presence of a positive control inhibitor (100% inhibition) versus a condition with the presence of the vehicle basal activity of the reporter (0% inhibition). The ability of a test compound to inhibit this activity was determined as: Percentage inhibition=[[…]((RLU determined in the presence of vehicle−RLU determined for sample with test compound present) divided by (RLU determined in the presence of vehicle−RLU determined for sample with positive control inhibitor))]*100
The activities of example compounds tested are depicted in the table below. The activity ranges A, B and C refer to IC50 values in the reporter gene assay as follows: “A”: IC50<1 μM; “B”: 1 μM≤IC50≤20 μM and “C”: IC50>20 μM; NT=not tested.
On to `C=CC(=O)NC1Cc2ccccc2N(c2cnc(C(F)(F)F)nc2)C1` (centres unmarked) [compound 031, N-(1-(2-(trifluoromethyl)pyrimidin-5-yl)-1,2,3,4-tetrahydroquinolin-3-yl)acrylamide], for which the 50% inhibitory concentration (IC50) was below 1000 nM. Next, `C=CC(=O)NC1Cc2ccccc2N(c2cccc(Cl)c2)C1` (centres unmarked) [compound 032, N-(1-(3-chlorophenyl)-1,2,3,4-tetrahydroquinolin-3-yl)acrylamide]: below 1000 nM. The compound `C=CC(=O)NC1Cc2ccccc2N(c2ccc(Cl)cc2)C1` (centres unmarked) [compound 033, N-(1-(4-chlorophenyl)-1,2,3,4-tetrahydroquinolin-3-yl)acrylamide] gave an IC50 below 1000 nM. With `C=CC(=O)NC1Cc2ccccc2N(c2ccc(C)cc2C)C1` (centres unmarked) [compound 034, N-(1-(2,4-dimethylphenyl)-1,2,3,4-tetrahydroquinolin-3-yl)acrylamide] the figure was below 1000 nM; with `C=CC(=O)NC1Cc2ccccc2N(c2ccc(F)cc2)C1` (centres unmarked) [compound 035, N-(1-(4-fluorophenyl)-1,2,3,4-tetrahydroquinolin-3-yl)acrylamide], below 1000 nM. With `C=CC(=O)NC1Cc2ccccc2N(c2ccc(F)cc2F)C1` (centres unmarked) [compound 036, N-(1-(2,4-difluorophenyl)-1,2,3,4-tetrahydroquinolin-3-yl)acrylamide] the figure was below 1000 nM; with `CCC(=O)NC1Cc2ccccc2N(c2ccc(C(F)(F)F)cc2)C1` (centres unmarked) [compound 037, N-(1-(4-(trifluoromethyl)phenyl)-1,2,3,4-tetrahydroquinolin-3-yl)propionamide], 1000 to 20000 nM; with `CC(C)=CC(=O)NC1Cc2ccccc2N(c2ccc(C(F)(F)F)cc2)C1` (centres unmarked) [compound 038, 3-methyl-N-(1-(4-(trifluoromethyl)phenyl)-1,2,3,4-tetrahydroquinolin-3-yl)but-2-enamide], 1000 to 20000 nM. With `C#CC(=O)NC1Cc2ccccc2N(c2ccc(C(F)(F)F)cc2)C1` (centres unmarked) [compound 040, N-(1-(4-(trifluoromethyl)phenyl)-1,2,3,4-tetrahydroquinolin-3-yl)propiolamide] the figure was below 1000 nM; with `CN(C)C/C=C/C(=O)NC1Cc2ccccc2N(c2ccc(C(F)(F)F)cc2)C1` (centres unmarked) [compound 041, (E)-4-(dimethylamino)-N-(1-(4-(trifluoromethyl)phenyl)-1,2,3,4-tetrahydroquinolin-3-yl)but-2-enamide], 1000 to 20000 nM; with `N#CC1CN(C2Cc3ccccc3N(c3ccc(C(F)(F)F)cc3)C2)C1=O` (centres unmarked) [compound 042, 2-oxo-1-(1-(4-(trifluoromethyl)phenyl)-1,2,3,4-tetrahydroquinolin-3-yl)azetidine-3-carbonitrile], 1000 to 20000 nM. Compound `OCCNC1Cc2ccccc2N(c2ccc(C(F)(F)F)cc2)C1` (centres unmarked) [compound 043, 2-((1-(4-(trifluoromethyl)phenyl)-1,2,3,4-tetrahydroquinolin-3-yl)amino)ethan-1-ol] came in with an IC50 below 1000 nM. On to `O=C(O)CNC1Cc2ccccc2N(c2ccc(C(F)(F)F)cc2)C1` (centres unmarked) [compound 044, (1-(4-(trifluoromethyl)phenyl)-1,2,3,4-tetrahydroquinolin-3-yl)glycine], for which the half-inhibitory concentration (IC50) was above 20000 nM. With `OCCCNC1Cc2ccccc2N(c2ccc(C(F)(F)F)cc2)C1` (centres unmarked) [compound 045, 3-((1-(4-(trifluoromethyl)phenyl)-1,2,3,4-tetrahydroquinolin-3-yl)amino)propan-1-ol] the figure was 1000 to 20000 nM; with `O=C(O)CCNC1Cc2ccccc2N(c2ccc(C(F)(F)F)cc2)C1` (centres unmarked) [compound 046, 3-((1-(4-(trifluoromethyl)phenyl)-1,2,3,4-tetrahydroquinolin-3-yl)amino)propanoic acid], below 1000 nM. Next, `CS(=O)(=O)NC1Cc2ccccc2N(c2ccc(C(F)(F)F)cc2)C1` (centres unmarked) [compound 047, N-(1-(4-(trifluoromethyl)phenyl)-1,2,3,4-tetrahydroquinolin-3-yl)methanesulfonamide]: below 1000 nM; `C=CS(=O)(=O)NC1Cc2ccccc2N(c2ccc(C(F)(F)F)cc2)C1` (centres unmarked) [compound 048, N-(1-(4-(trifluoromethyl)phenyl)-1,2,3,4-tetrahydroquinolin-3-yl)ethenesulfonamide]: below 1000 nM; `CS(=O)(=O)CCNC1Cc2ccccc2N(c2ccc(C(F)(F)F)cc2)C1` (centres unmarked) [compound 049, N-(2-(methylsulfonyl)ethyl)-1-(4-(trifluoromethyl)phenyl)-1,2,3,4-tetrahydroquinolin-3-amine]: 1000 to 20000 nM. Next, `O=S1(=O)CCN1C1Cc2ccccc2N(c2ccc(C(F)(F)F)cc2)C1` (centres unmarked) [compound 050, 2-(1-(4-(trifluoromethyl)phenyl)-1,2,3,4-tetrahydroquinolin-3-yl)-1,2-thiazetidine-1,1-dioxide]: 1000 to 20000 nM; `CNS(=O)(=O)CCNC1Cc2ccccc2N(c2ccc(C(F)(F)F)cc2)C1` (centres unmarked) [compound 051, N-methyl-2-((1-(4-(trifluoromethyl)phenyl)-1,2,3,4-tetrahydroquinolin-3-yl)amino)ethane-1-sulfonamide]: 1000 to 20000 nM; `N#CCC(=O)NC1Cc2ccccc2N(c2ccc(C(F)(F)F)cc2)C1` (centres unmarked) [compound 052, 2-cyano-N-(1-(4-(trifluoromethyl)phenyl)-1,2,3,4-tetrahydroquinolin-3-yl)acetamide]: 1000 to 20000 nM. `N#CCCNC1Cc2ccccc2N(c2ccc(C(F)(F)F)cc2)C1` (centres unmarked) [compound 053, 3-((1-(4-(trifluoromethyl)phenyl)-1,2,3,4-tetrahydroquinolin-3-yl)amino)propanenitrile]: the IC50 lay within 1000 to 20000 nM.

`N#CCNC1Cc2ccccc2N(c2ccc(C(F)(F)F)cc2)C1` (centres unmarked) [compound 054, 2-((1-(4-(trifluoromethyl)phenyl)-1,2,3,4-tetrahydroquinolin-3-yl)amino)acetonitrile] returned an IC50 of 1000 to 20000 nM.

As for `CC(C)(C)OC(=O)NC1Cc2c(Br)cccc2N(c2ccc(C(F)(F)F)cc2)C1` (centres unmarked) [compound 055, tert-butyl (5-bromo-1-(4-(trifluoromethyl)phenyl)-1,2,3,4-tetrahydroquinolin-3-yl)carbamate], the half-maximal inhibitory concentration (IC50) was above 20000 nM.

`C=CC(=O)NC1Cc2c(Br)cccc2N(c2ccc(C(F)(F)F)cc2)C1` (centres unmarked) [compound 058, N-(5-bromo-1-(4-(trifluoromethyl)phenyl)-1,2,3,4-tetrahydroquinolin-3-yl)acrylamide]: the IC50 is below 1000 nM. With `CCC(=O)NC1Cc2c(Cc3cccnc3)cccc2N(c2ccc(C(F)(F)F)cc2)C1` (centres unmarked) [compound 061, N-(5-(pyridin-3-ylmethyl)-1-(4-(trifluoromethyl)phenyl)-1,2,3,4-tetrahydroquinolin-3-yl)propionamide] the figure was 1000 to 20000 nM. With `C=CC(=O)NC1Cc2c(Cc3cccc(C#N)c3)cccc2N(c2ccc(C(F)(F)F)cc2)C1` (centres unmarked) [compound 062, N-(5-(3-cyanobenzyl)-1-(4-(trifluoromethyl)phenyl)-1,2,3,4-tetrahydroquinolin-3-yl)acrylamide] the figure was below 1000 nM; with `C=CC(=O)NC1Cc2c(Cc3cccc(F)c3)cccc2N(c2ccc(C(F)(F)F)cc2)C1` (centres unmarked) [compound 063, N-(5-(3-fluorobenzyl)-1-(4-(trifluoromethyl)phenyl)-1,2,3,4-tetrahydroquinolin-3-yl)acrylamide], below 1000 nM; with `C=CC(=O)NC1Cc2cc(C)ccc2N(c2ccc(C(F)(F)F)cc2)C1` (centres unmarked) [compound 065, N-(6-methyl-1-(4-(trifluoromethyl)phenyl)-1,2,3,4-tetrahydroquinolin-3-yl)acrylamide], below 1000 nM. With `C=CC(=O)NC1Cc2c(Cc3ccccc3)cccc2N(c2ccc(C(F)(F)F)cc2)C1` (centres unmarked) [compound 066, N-(5-benzyl-1-(4-(trifluoromethyl)phenyl)-1,2,3,4-tetrahydroquinolin-3-yl)acrylamide] the figure was below 1000 nM. `CCC(=O)NC1Cc2c(Cc3ccccc3)cccc2N(c2ccc(C(F)(F)F)cc2)C1` (centres unmarked) [compound 067, N-(5-benzyl-1-(4-(trifluoromethyl)phenyl)-1,2,3,4-tetrahydroquinolin-3-yl)propionamide] had an IC50 of 1000 to 20000 nM. With `C=CC(=O)NC1Cc2c(CN3CCOCC3)cccc2N(c2ccc(C(F)(F)F)cc2)C1` (centres unmarked) [compound 068, N-(5-(morpholinomethyl)-1-(4-(trifluoromethyl)phenyl)-1,2,3,4-tetrahydroquinolin-3-yl)acrylamide] the figure was below 1000 nM; with `C=CC(=O)NC1Cc2c(Nc3ccccc3)cccc2N(c2ccc(C(F)(F)F)cc2)C1` (centres unmarked) [compound 069, N-(5-(phenylamino)-1-(4-(trifluoromethyl)phenyl)-1,2,3,4-tetrahydroquinolin-3-yl)acrylamide], below 1000 nM. With `C=CC(=O)NC1Cc2c(Nc3cccnc3)cccc2N(c2ccc(C(F)(F)F)cc2)C1` (centres unmarked) [compound 070, N-(5-(pyridin-3-ylamino)-1-(4-(trifluoromethyl)phenyl)-1,2,3,4-tetrahydroquinolin-3-yl)acrylamide] the figure was below 1000 nM. `CCC(=O)NC1Cc2c(Nc3ccccc3)cccc2N(c2ccc(C(F)(F)F)cc2)C1` (centres unmarked) [compound 071, N-(5-(phenylamino)-1-(4-(trifluoromethyl)phenyl)-1,2,3,4-tetrahydroquinolin-3-yl)propionamide] yielded an IC50 of 1000 to 20000 nM.

Source of the values: US20240025856A1, “1,2,3,4-TETRAHYDROQUINOLINE DERIVATIVES AS INHIBITORS OF THE YAP/TAZ-TEAD ACTIVATION FOR TREATING CANCER” (KATHOLIEKE UNIVERSITEIT LEUVEN, priority 2020, published 2024).
